# Source: ChEMBL document CHEMBL1201862, “PubChem BioAssay data set” (2004)
#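 The compound was tested at five concentrations on cells cultured in 96-well plates, with a 48-hour exposure period. GI50 marks 50% less growth.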 Active and inactive are the calls of the source. Rule as the data show it: active = GI50 up to about 1.1 µM and inactive = higher.
# What was measured:
# Assay in all cases: inhibition of tumour cell growth, NCI panel, 48 h
# A498 = test system: A498
# IGROV-1 = test system: IGROV-1
# DLD-1 = test system: DLD-1
# A549 = test system: A549
# LXFL 529 = test system: LXFL 529
# NCI-H460 = test system: NCI-H460
# DMS-114 = test system: DMS-114
# NCI-H522 = test system: NCI-H522
# KM12 = test system: KM12
# RPMI-8226 = test system: RPMI-8226
# MOLT-4 = test system: MOLT-4
# K562 = test system: K562
# HT-29 = test system: HT-29
# HL-60 = test system: HL-60
# NCI-H226 = test system: NCI-H226
# EKVX = test system: EKVX
# SN12C = test system: SN12C
# NCI-H23 = test system: NCI-H23
# OVCAR-5 = test system: OVCAR-5
# UO-31 = test system: UO-31
# Malme-3M = test system: Malme-3M
# SW-620 = test system: SW-620
# SNB-78 = test system: SNB-78
# SR = test system: SR
# SK-OV-3 = test system: SK-OV-3
# SNB-19 = test system: SNB-19
# OVCAR-3 = test system: OVCAR-3
# XF498 = test system: XF498
# OVCAR-4 = test system: OVCAR-4
# CAKI-1 = test system: CAKI-1
# TK-10 = test system: TK-10
# COLO 205 = test system: COLO 205
# SF-295 = test system: SF-295
# U-251 = test system: U-251
# UACC-62 = test system: UACC-62
# SNB-75 = test system: SNB-75
# OVCAR-8 = test system: OVCAR-8
# HCT-116 = test system: HCT-116
# SK-MEL-28 = test system: SK-MEL-28
# CCRF-CEM = test system: CCRF-CEM
# M14 = test system: M14
# SF-268 = test system: SF-268
# ACHN = test system: ACHN
# M19-MEL = test system: M19-MEL
# HOP-92 = test system: HOP-92
# 786-0 = test system: 786-0
# UACC-257 = test system: UACC-257
# SK-MEL-2 = test system: SK-MEL-2
# HOP-62 = test system: HOP-62
# HCT-15 = test system: HCT-15
# HCC 2998 = test system: HCC 2998
# LOX IMVI = test system: LOX IMVI
# RXF 393 = test system: RXF 393
# KM-20L2 = test system: KM-20L2
# SF-539 = test system: SF-539
smiles,measurement,setting,value
O=C1OCCC1C(O)C1c2ccccc2-c2ccccc21 (configuration not stated),GI50,A498,> 100 µM (inactive)
same,GI50,IGROV-1,> 100 µM (inactive)
same,GI50,DLD-1,> 100 µM (inactive)
same,GI50,A549,> 100 µM (inactive)
same,GI50,LXFL 529,> 100 µM (inactive)
same,GI50,NCI-H460,> 100 µM (inactive)
same,GI50,DMS-114,> 100 µM (inactive)
same,GI50,NCI-H522,> 100 µM (inactive)
same,GI50,KM12,> 100 µM (inactive)
same,GI50,RPMI-8226,> 100 µM (inactive)
same,GI50,MOLT-4,> 100 µM (inactive)
same,GI50,K562,> 100 µM (inactive)
same,GI50,HT-29,> 100 µM (inactive)
same,GI50,HL-60,> 100 µM (inactive)
same,GI50,NCI-H226,> 100 µM (inactive)
same,GI50,EKVX,> 100 µM (inactive)
same,GI50,SN12C,> 100 µM (inactive)
same,GI50,NCI-H23,> 100 µM (inactive)
same,GI50,OVCAR-5,> 100 µM (inactive)
same,GI50,UO-31,> 100 µM (inactive)
same,GI50,Malme-3M,> 100 µM (inactive)
same,GI50,SW-620,> 100 µM (inactive)
same,GI50,SNB-78,> 100 µM (inactive)
same,GI50,SR,> 100 µM (inactive)
same,GI50,SK-OV-3,> 100 µM (inactive)
same,GI50,SNB-19,> 100 µM (inactive)
same,GI50,OVCAR-3,> 100 µM (inactive)
same,GI50,XF498,17.8 µM (inactive)
same,GI50,OVCAR-4,> 100 µM (inactive)
same,GI50,CAKI-1,> 100 µM (inactive)
same,GI50,TK-10,> 100 µM (inactive)
same,GI50,COLO 205,> 100 µM (inactive)
same,GI50,SF-295,> 100 µM (inactive)
same,GI50,U-251,> 100 µM (inactive)
same,GI50,UACC-62,> 100 µM (inactive)
same,GI50,SNB-75,> 100 µM (inactive)
same,GI50,OVCAR-8,> 100 µM (inactive)
same,GI50,HCT-116,> 100 µM (inactive)
same,GI50,SK-MEL-28,> 100 µM (inactive)
same,GI50,CCRF-CEM,> 100 µM (inactive)
same,GI50,M14,> 100 µM (inactive)
same,GI50,SF-268,> 100 µM (inactive)
same,GI50,ACHN,> 100 µM (inactive)
same,GI50,M19-MEL,> 100 µM (inactive)
same,GI50,HOP-92,> 100 µM (inactive)
same,GI50,786-0,> 100 µM (inactive)
same,GI50,UACC-257,> 100 µM (inactive)
same,GI50,SK-MEL-2,> 100 µM (inactive)
same,GI50,HOP-62,> 100 µM (inactive)
CC(C)C(C)C(C)(C)P(C)(C)=O (configuration not stated),GI50,HCT-15,> 100 µM
same,GI50,HCC 2998,> 100 µM (inactive)
same,GI50,DLD-1,> 100 µM (inactive)
same,GI50,LXFL 529,> 100 µM (inactive)
same,GI50,NCI-H460,> 100 µM (inactive)
same,GI50,DMS-114,> 100 µM (inactive)
same,GI50,KM12,> 100 µM (inactive)
same,GI50,HT-29,> 100 µM (inactive)
same,GI50,NCI-H226,> 100 µM (inactive)
same,GI50,EKVX,> 100 µM (inactive)
same,GI50,SN12C,> 100 µM (inactive)
same,GI50,NCI-H23,> 100 µM (inactive)
same,GI50,OVCAR-5,> 100 µM (inactive)
same,GI50,UO-31,> 100 µM (inactive)
same,GI50,Malme-3M,> 100 µM (inactive)
same,GI50,SNB-78,> 100 µM (inactive)
same,GI50,LOX IMVI,> 100 µM (inactive)
same,GI50,SK-OV-3,> 100 µM (inactive)
same,GI50,SNB-19,> 100 µM (inactive)
same,GI50,OVCAR-3,> 100 µM (inactive)
same,GI50,XF498,> 100 µM (inactive)
same,GI50,OVCAR-4,> 100 µM (inactive)
same,GI50,TK-10,> 100 µM (inactive)
same,GI50,U-251,> 100 µM (inactive)
same,GI50,UACC-62,> 100 µM (inactive)
same,GI50,SNB-75,> 100 µM (inactive)
same,GI50,HCT-116,> 100 µM (inactive)
same,GI50,RXF 393,> 100 µM (inactive)
same,GI50,SK-MEL-28,> 100 µM (inactive)
same,GI50,M14,> 100 µM (inactive)
same,GI50,SF-268,> 100 µM (inactive)
same,GI50,ACHN,> 100 µM (inactive)
same,GI50,KM-20L2,> 100 µM (inactive)
same,GI50,SF-539,> 100 µM (inactive)
same,GI50,M19-MEL,> 100 µM (inactive)
same,GI50,UACC-257,> 100 µM (inactive)
same,GI50,SK-MEL-2,> 100 µM (inactive)
same,GI50,HOP-62,> 100 µM (inactive)
